# Results: ChEMBL document CHEMBL3045726, “Fungicidal Activity of Pyrazolylpyrimidines” (1990)
# Assays:
# Assay type in all cases: functional
# Pyricularia oryzae [1] = assay: Fungicidal activity against Magnaporthe oryzae by agar dilution method
# Pyricularia oryzae [2] = assay: Fungicidal activity against Magnaporthe oryzae in rice seedlings assessed as control of rice blast at 250 ppm by curative foliar treatment
# Nakataea oryzae = assay: Fungicidal activity against Magnaporthe salvinii by agar dilution method
# Podosphaera fuliginea [3] = assay: Fungicidal activity against Podosphaera fuliginea in cucumber assessed as control of cucumber powdery mildew at 62.5 ppm measured after 10 days of inoculation
# Podosphaera fuliginea [4] = assay: Fungicidal activity against Podosphaera fuliginea in cucumber assessed as control of cucumber powdery mildew at 125 ppm measured after 10 days of inoculation
# Podosphaera fuliginea [5] = assay: Fungicidal activity against Podosphaera fuliginea in cucumber assessed as control of cucumber powdery mildew at 62.5 ppm measured after 7 days of inoculation
# Podosphaera fuliginea [6] = assay: Fungicidal activity against Podosphaera fuliginea in cucumber assessed as control of cucumber powdery mildew at 125 ppm measured after 7 days of inoculation
# Pyricularia oryzae [7] = assay: Fungicidal activity against Magnaporthe oryzae in rice seedlings assessed as control of rice blast at 500 ppm by preventive foliar treatment
# Pyricularia oryzae [8] = assay: Fungicidal activity against Magnaporthe oryzae in rice seedlings assessed as control of rice blast at 500 ppm by curative foliar treatment
SMILES,MIC (Pyricularia oryzae [1]),Activity (Pyricularia oryzae [2]),MIC (Nakataea oryzae),Activity (Podosphaera fuliginea [3]),Activity (Podosphaera fuliginea [4]),Activity (Podosphaera fuliginea [5]),Activity (Podosphaera fuliginea [6]),Activity (Pyricularia oryzae [7]),Activity (Pyricularia oryzae [8])
Cc1cc(O)nc(-n2nc(C)cc2C)n1,12.5 µg/mL,69%,–,–,–,–,–,–,–
Cc1cc(C)n(-c2nc(C)c(C)c(O)n2)n1,12.5 µg/mL,0%,100 µg/mL,–,–,–,–,–,–
CCCCc1c(C)nc(-n2nc(C)cc2C)nc1O,6.25 µg/mL,–,0.1 µg/mL,100%,100%,100%,100%,48%,99%
Cc1cc(C)n(-c2nc(C)c(CC(C)C)c(O)n2)n1,6.25 µg/mL,–,0.78 µg/mL,99.4%,100%,100%,100%,93%,98%
Cc1cc(C)n(-c2nc(O)c3c(n2)CCC3)n1,6.25 µg/mL,15%,6.25 µg/mL,–,–,–,–,13%,–
Cc1cc(C)n(-c2nc(O)c3c(n2)CCCC3)n1,3.12 µg/mL,0%,–,–,–,–,–,0%,–
